The NIST ThermoML archive (doi:10.1016/j.jct.2009.07.002)

Assay: isobaric coefficient of expansion
Conditions: Liquid, DSC with Pressure Shift

CCCCCCCCCCO [decan-1-ol]
isobaric coefficient of expansion
Conditions	298.15 K	308.15 K	318.15 K	328.15 K	338.15 K	348.15 K
5000 kPa	0.000809 1/K	0.000822 1/K	0.000837 1/K	0.00085 1/K	0.000869 1/K	0.000895 1/K
10000 kPa	0.000792 1/K	0.0008 1/K	0.000814 1/K	0.000827 1/K	0.000843 1/K	0.000863 1/K
15000 kPa	0.000776 1/K	0.000784 1/K	0.000795 1/K	0.000803 1/K	0.000819 1/K	0.000832 1/K
20000 kPa	0.000755 1/K	0.000764 1/K	0.000775 1/K	0.000781 1/K	0.000799 1/K	0.000812 1/K
25000 kPa	0.000739 1/K	0.000748 1/K	0.000758 1/K	0.000765 1/K	0.000779 1/K	0.000792 1/K
30000 kPa	0.000725 1/K	0.00073 1/K	0.000743 1/K	0.000748 1/K	0.00076 1/K	0.000775 1/K
35000 kPa	0.000715 1/K	0.000719 1/K	0.000726 1/K	0.000732 1/K	0.000745 1/K	0.000755 1/K
40000 kPa	0.000702 1/K	0.000706 1/K	0.000711 1/K	0.000719 1/K	0.000729 1/K	0.000738 1/K
45000 kPa	0.00069 1/K	0.00069 1/K	0.000699 1/K	0.000704 1/K	0.000713 1/K	0.000722 1/K
50000 kPa	0.000679 1/K	0.00068 1/K	0.000688 1/K	0.000691 1/K	0.000701 1/K	0.000708 1/K
55000 kPa	0.000669 1/K	0.000669 1/K	0.000676 1/K	0.000679 1/K	0.000689 1/K	0.000697 1/K

CCO [ethanol]
isobaric coefficient of expansion
Conditions	278.15 K	288.15 K	298.15 K	308.15 K	318.15 K	328.15 K	338.15 K	348.15 K
5000 kPa	0.00102 1/K	0.00103 1/K	0.00106 1/K	0.00109 1/K	0.00112 1/K	0.00116 1/K	0.00121 1/K	0.00127 1/K
10000 kPa	0.000988 1/K	0.00101 1/K	0.00103 1/K	0.00105 1/K	0.00109 1/K	0.00112 1/K	0.00116 1/K	0.00122 1/K
15000 kPa	0.000966 1/K	0.000983 1/K	0.001 1/K	0.00102 1/K	0.00105 1/K	0.00108 1/K	0.00112 1/K	0.00116 1/K
20000 kPa	0.000948 1/K	0.000956 1/K	0.000973 1/K	0.000994 1/K	0.00102 1/K	0.00105 1/K	0.00108 1/K	0.00112 1/K
25000 kPa	0.000928 1/K	0.000936 1/K	0.000952 1/K	0.000971 1/K	0.000988 1/K	0.00102 1/K	0.00105 1/K	0.00108 1/K
30000 kPa	0.000908 1/K	0.000918 1/K	0.000929 1/K	0.000944 1/K	0.000966 1/K	0.000988 1/K	0.00102 1/K	0.00105 1/K
35000 kPa	0.000892 1/K	0.000899 1/K	0.000908 1/K	0.000921 1/K	0.000942 1/K	0.000962 1/K	0.000988 1/K	0.00102 1/K
40000 kPa	0.000882 1/K	0.000875 1/K	0.000887 1/K	0.000903 1/K	0.000918 1/K	0.000936 1/K	0.000958 1/K	0.000984 1/K
45000 kPa	0.000863 1/K	0.000866 1/K	0.000871 1/K	0.000883 1/K	0.000898 1/K	0.000912 1/K	0.000935 1/K	0.000959 1/K
50000 kPa	0.000852 1/K	0.00085 1/K	0.000853 1/K	0.000865 1/K	0.000882 1/K	0.000894 1/K	0.000911 1/K	0.000938 1/K
55000 kPa	0.000839 1/K	0.000831 1/K	0.000839 1/K	0.000848 1/K	0.000863 1/K	0.000877 1/K	0.000891 1/K	0.000915 1/K
